The text below walks through data of patent US11447495B2, “Substituted benzo[f]imidazo[1,5-a][1,4]diazepines as GABA(a) receptor modulators” (priority 2016, dated 2022).

One data set has as its system HEPG2. Put plainly: Cytotoxicity, liver cells. In kind it is cell-based, human. Particulars: human, HepG2 liver cells.
The test system of data set [1] is inflammatory cells, eosinophils, CD4+ T cells in BALF. Put plainly: Inflammatory cell numbers in BALF by flow cytometry. In kind it is in vivo, ova s/c BALB/c mice. Particulars: 100 mg/kg twice daily for 5 days. On the procedure: The change of the number of specific immune cells caused by compounds may be investigated in the bronchoalveolar lavage fluid (BALF) of Ova S/C mice. Therefore, a bronchoalveolar lavage may be carried out followed by the lysis of red blood cells. Incubation of cell-type specific antibodies with BALF may allow the quantification of leukocytes such as eosinophils and CD4^+ T-lymphocytes using flow cytometry.
Determination of anti-inflammatory properties of compounds were investigated in an allergen induced mouse model of asthma. At the day of analysis, bronchoalveolar lavage (BAL) was performed with 1 mL of Ca2+ and Mg2+ free PBS. Red blood cells (RBCs) were lysed using BD red blood cell lysis buffer (BD Pharmingen, San Jose, Calif.). BALF was split into four different tubes and non-specific binding to Fc receptors was blocked for 5 minutes using 6 μg/mL of 2.4G2 mouse BD Fc Block™ (BD Pharmingen, San Jose, Calif.). BALF cells were stained for 30 minutes at 4° C. in the dark with 100 μL BSA stain buffer (BD Pharmingen, San Jose, Calif.) containing the final concentrations of the following antibodies: anti-mouse CD45 APC (1:1000, 30-F11, Affymetrix eBiosciences, San Diego, Calif.), FITC rat anti-mouse CD4 (1:500, RM4-5, BD Pharmingen, San Jose, Calif.), PE Rat Anti-Mouse Siglec F (1:500, E50-2440, BD Pharmingen, San Jose, Calif.) and mouse CCR3 PE-conjugated antibody (1:40, 83101, R&D systems Inc, Minneapolis, Minn.). Flow cytometric studies were done using the BD FACS Calibur (BD Pharmingen, San Jose, Calif.) and data analyzed subsequently using Cell Quest pro software (BD Pharmingen, San Jose, Calif.). General gating for immune cells were followed. Total inflammatory cell count was obtained by running all samples on high (60 μL/min) for 180 seconds. The gated anti-mouse CD45 positive events in the fourth channel (FL4) were used to calculate the total inflammatory cell count as cells/mL. The frequencies of CCR3+/Siglec F were used for quantification of eosinophils and CD4+ for CD4+ T cell populations in their respective gates were multiplied by the total inflammatory cell count (cells/mL) to obtain the differential cell population. Statistical analysis: Data were analyzed using GraphPad Prism 4 (GraphPad Software, San Diego, Calif.) and expressed as mean±SEM. One-way analysis of variance (ANOVA) with Dunnet post hoc test or two-way ANOVA with Bonferroni post hoc test were performed for statistical difference for multiple groups. FIGS. 7A-7C show effects of compounds on inflammatory cells. Groups of 10 ova s/c BALB/c mice were administered compounds at 100 mg/kg twice daily for 5 days. BALF was harvested from each animal and used for (A) quantification of total inflammatory cells; (B) eosinophils; (C) CD4^+ T cells. Cells were stained with mouse CD45^+ APC antibody, and samples were analyzed with BD FACS Calibur on high flow rate (60 μl/minute) for 180 seconds. The gated positive events in the fourth channel (FL4) were used to calculate the total inflammatory cell count as cells/ml. Quantification of specific leukocyte population (B) eosinophils (C) CD4^+ T cell populations were stained with specific antibodies and detected by flow cytometry. Data represent mean±SEM from 10 mice in each group. *, **, and *** indicate p<0.05, p<0.01, and p<0.001 significance, respectively, compared to vehicle treated ova s/c BALB/c mice.

A short description of data set [2]: Microsomal stability, human liver microsomes. In kind it is in vitro ADME. Particulars: 10 μM compound. The method, then:
(§1) The metabolic stability of compounds in vivo can be estimated with the stability of compounds in the presence of liver microsomes. Therefore, 4 μL of 1 mM DMSO solution of test compound at a final concentration of 10 μM were preincubated at 37° C. for 5 minutes on a digital heating shaking dry bath (Fischer scientific, Pittsburgh, Pa.) in a mixture containing 282 μL of water, 80 μL of phosphate buffer (0.5 M, pH 7.4) 20 μL of NADPH Regenerating System Solution A (BD Bioscience, San Jose, Calif.) and 4 μL of NADPH Regenerating System Solution B (BD Bioscience, San Jose, Calif.) in a total volume of 391.2 μL. Following preincubation, the reaction was initiated by addition of 8.8 μL of either human liver microsomes (BD Gentest, San Jose, Calif.) or mouse liver microsomes (Life technologies, Rockford, Ill.) at a protein concentration of 0.5 mg/mL. Aliquots of 50 μL were taken at time intervals of 0 (without microsomes), 10, 20, 30, 40, 50 and 60 minutes. Each aliquot was added to 100 μL of cold acetonitrile solution containing 1 μM of verapamil HCL as internal standard. This was followed by sonication for 10 seconds and centrifugation at 10,000 rpm for 5 minutes. 100 μL of the supernatant was transferred into Spin-X HPLC filter tubes (Corning Incorporated, NY) and centrifuged at 13,000 rpm for 5 minutes. The filtrate was diluted 100-fold and subsequently analyzed by LC-MS/MS with Shimadzu LCMS 8040, (Shimadzu Scientific Instruments, Columbia, Md.). The ratio of the peak areas of the internal standard and test compound was calculated for every time point and the natural log of the ratio were plotted against time to determine the linear slope (k). The metabolic rate (k*C0/C), half-life (0.693/k), and […] (V*k) were calculated, where k is the slope, C0 is the initial concentration of test compound, C is the concentration of microsomes, and V is the volume of incubation in μL per microsomal protein in mg. All experiments were repeated two time in triplicates.

Data set [3] in a line: Microsomal stability, mouse liver microsomes. Type of data set: in vitro ADME. Particulars: 10 μM compound. On the procedure:
as §1

On to `C[C@H]1N=C(c2ccccc2F)c2cc(Br)ccc2-n2cnc(C(=O)O)c21` [GL-II-93, (R)-8-bromo-6-(2-fluorophenyl)-4-methyl-4H-benzo[f]imidazo[1,5-a][1,4]diazepine-3-carboxylic acid], for which, in the data set on HEPG2, the “LD50 HEPG2 (Liver)” value is above 400 µM. Also, in data set [1], the “numbers of CD4+ T cells” value is “did reduce the numbers of eosinophils and CD4^+ T cells”; the numbers of eosinophils result is on record as “did reduce the numbers of eosinophils”.
For `CCOC(=O)c1ncn2c1[C@@H]1CCCN1C(=O)c1cc(O)ccc1-2` [RJ-02-50, ethyl (S)-7-hydroxy-9-oxo-11,12,13,13a-tetrahydro-9H-benzo[e]imidazo[5,1-c]pyrrolo[1,2-a][1,4]diazepine-1-carboxylate], the “LD50 HEPG2 (Liver)” value with HEPG2 was above 400 µM. Also, the “HLM % remaining after 60 min” value in data set [2] is listed as 91.7 ± 0.2%. The “MLM % remaining after 60 min” value in data set [3] was determined as 91.1 ± 0.1%. Also, in data set [1], the “numbers of CD4+ T cells” value is “did reduce the numbers of eosinophils and CD4^+ T cells”; the numbers of eosinophils result is listed as “did reduce the numbers of eosinophils”.
Take `O=C1c2cc(O)ccc2-n2cnc(-c3cnco3)c2[C@@H]2CCCN12` [RJ-03-30, (S)-7-hydroxy-1-(oxazol-5-yl)-11,12,13,13a-tetrahydro-9H-benzo[e]imidazo[5,1-c]pyrrolo[1,2-a][1,4]diazepin-9-one]: the “LD50 HEPG2 (Liver)” value in the data set with HEPG2 was above 400 µM. The “HLM % remaining after 60 min” value in data set [2] is 91.8 ± 0.2%. The “MLM % remaining after 60 min” value in data set [3] worked out at 80.0 ± 0.3%. In addition, the “numbers of inflammatory cells in BALF” value in data set [1] is listed as “did not modulate the numbers of inflammatory cells”.
Turning to `C#Cc1ccc2c(c1)C(c1ccccc1F)=N[C@H](C)c1c(C(=O)O)ncn1-2` [SH-053-2′F-R-CH3-Acid, (R)-8-ethynyl-6-(2-fluorophenyl)-4-methyl-4H-benzo[f]imidazo[1,5-a][1,4]diazepine-3-carboxylic acid], the “LD50 HEPG2 (Liver)” value in the data set with HEPG2 was above 400 µM. Also, the “HLM % remaining after 60 min” value in data set [2] is on record as 92.0 ± 0.2%. Further, in data set [3], the “MLM % remaining after 60 min” value worked out at 89.0 ± 0.3%. For the same compound, in data set [1], the “numbers of CD4+ T cells” value is given as “but not CD4^+ T cells” and the numbers of eosinophils entry is “reduced the numbers of eosinophils”.
